Measured values published in ChEMBL document CHEMBL5370565, “Inhibition of Cysteine Proteases via Thiol-Michael Addition Explains the Anti-SARS-CoV-2 and Bioactive Properties of Arteannuin B” (J Nat Prod, 2023).
Activity calls are given as the source filed them. The calls are words filed in the database; no cut-off is given here.

Key:
Glioblastoma cell line = experiment: Cytotoxicity against glioblastoma (unknown origin) cells assessed as reduction in cell viability at 35 uM incubated for 24 hrs by eFluor 780 fixable viability dye based flow cytometric analysis; format: functional
Caspase-8 (Homo sapiens) = Caspase-8 (Homo sapiens) (UniProt Q14790); experiment: Inhibition of C-terminal 6his tagged human Caspase 8 activity expressed in Escherichia coli BL21 (DE3) cells at 50 uM preincubated for 30 mins by LC-MS analysis
SARS-CoV-2 = experiment: Antiviral activity against SARS-CoV-2 GX_P2V infected in African green monkey Vero E6 cells assessed as reduction in viral yield pretreated with cells for 2 hrs followed by viral infection and measured after 72 hrs by qRT-PCR analysis; format: functional, organism-based; settings: Severe acute respiratory syndrome coronavirus 2, GX_P2V, Vero C1008
[1] = system: Severe acute respiratory syndrome coronavirus 2; experiment: Inhibition of C-terminal 6his-tagged/N-terminal strepII-tagged SARS-CoV-2 NSP5 expressed in Escherichia coli BL21 (DE3) cells using (4-Fluoro-F)LQS as substrate assessed as (4-fluoro-F)L production at 48 uM preincubated with compound for 60 mins followed by substrate addition and measured after 300 mins by LC-MS analysis relative to control; settings: time 360.0 min

Caspase-8 (Homo sapiens), sequence (Q14790 217-374 limits assumed): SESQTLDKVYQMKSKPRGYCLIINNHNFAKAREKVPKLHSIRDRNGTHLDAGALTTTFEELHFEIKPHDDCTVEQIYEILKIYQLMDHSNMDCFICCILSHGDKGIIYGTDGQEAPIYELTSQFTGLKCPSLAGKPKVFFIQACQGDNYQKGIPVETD
Caspase-8 (Homo sapiens), sequence (Q14790 385-479 limits assumed): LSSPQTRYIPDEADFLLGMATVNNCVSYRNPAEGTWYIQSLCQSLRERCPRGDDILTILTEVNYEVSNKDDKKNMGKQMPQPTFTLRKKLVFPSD

| SMILES | Activity (Glioblastoma cell line) | inhibition (Caspase-8 (Homo sapiens)) | EC50 (SARS-CoV-2) | inhibition [1] |
| --- | --- | --- | --- | --- |
| C[C@@H]1CC[C@H]2[C@H](C)C(=O)O[C@]23[C@H]1CC[C@@]1(C)O[C@@H]31 | inactive | – | – | – |
| C=C1C(=O)O[C@@]23C1CC[C@@H](C)[C@@H]2CC[C@@]1(C)O[C@@H]31 (stereo not given in full) | Active | Active | 8.84 µM | 45% |
